What was measured:
[1] = target: T1, recombinant human SOS1 polypeptide (amino acids 560-1049) (Homo sapiens, UniProt Q07889); assay: HTRF displacement assay: inhibition of labeled tracer binding to SOS1; details: Table A, Morrison equation for competitive binding
T1 construct: corresponding to amino acids 560-1049, expressed in E. Coli; made in house; host or cells: E. coli
T1 sequence (Q07889 560-1049): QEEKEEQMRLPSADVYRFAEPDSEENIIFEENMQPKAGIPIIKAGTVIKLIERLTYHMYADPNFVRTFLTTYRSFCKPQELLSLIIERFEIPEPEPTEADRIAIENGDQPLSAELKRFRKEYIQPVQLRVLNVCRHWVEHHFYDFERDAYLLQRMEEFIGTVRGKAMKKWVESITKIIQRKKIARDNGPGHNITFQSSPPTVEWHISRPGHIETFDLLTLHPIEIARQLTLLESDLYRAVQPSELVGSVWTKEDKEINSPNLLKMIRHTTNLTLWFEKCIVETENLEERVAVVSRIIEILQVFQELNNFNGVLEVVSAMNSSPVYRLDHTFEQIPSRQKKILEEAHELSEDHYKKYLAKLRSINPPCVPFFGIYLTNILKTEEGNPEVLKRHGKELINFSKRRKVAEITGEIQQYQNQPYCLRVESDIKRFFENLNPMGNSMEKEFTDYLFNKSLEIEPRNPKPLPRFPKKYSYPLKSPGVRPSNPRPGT

pERK in MKN1 cells = assay: pERK inhibition, In-Cell Western (LI-COR Odyssey), MKN1 cells; format: cell-based; details: Homo sapiens, MKN-1, Table B; MKN1 or H358 cells (table does not say which); 0.5-1 hour incubation; read-out: IC50 (nM), pERK inhibition
How it was run: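 MKN1 cells were exposed for about 0.5–1 h at 37 °C to nine 3-fold dilutions starting at 10 µM. Cells were then fixed in formaldehyde, permeabilised with methanol, and immunostained for pERK and GAPDH with near-infrared secondary antibodies. GAPDH-normalised pERK signal relative to vehicle gave % inhibition, from which IC50 was fitted.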

## Cc1c(C#N)cccc1[C@@H](C)Nc1nnc(C)c2cnc(N(C)C[C@H]3CCCN3C)cc12 [Example 1-58, 2-methyl-3-((R)-1-((4-methyl-7-(methyl(((R)-1-methylpyrrolidin-2-yl)methyl)amino)pyrido[3,4-d]pyridazin-1-yl)amino)ethyl)benzonitrile]
[1]
  Ki: 1.89 nM
pERK in MKN1 cells
  IC50: 73.8 nM

## COCCN1CC2(C1)CN(c1cc3c(N[C@H](C)c4cccc(C#N)c4C)nnc(C)c3cn1)C2 [Example 1-59, (R)-3-(1-((7-(6-(2-methoxyethyl)-2,6-diazaspiro[3.3]heptan-2-yl)-4-methylpyrido[3,4-d]pyridazin-1-yl)amino)ethyl)-2-methylbenzonitrile]
[1]
  Ki: 0.977 nM
pERK in MKN1 cells
  IC50: 37.6 nM

## CCOCCN1CC2(C1)CN(c1cc3c(N[C@H](C)c4cccc(C#N)c4C)nnc(C)c3cn1)C2 [Example 1-60, (R)-3-(1-((7-(6-(2-ethoxyethyl)-2,6-diazaspiro[3.3]heptan-2-yl)-4-methylpyrido[3,4-d]pyridazin-1-yl)amino)ethyl)-2-methylbenzonitrile]
[1]
  Ki: 0.93 nM
pERK in MKN1 cells
  IC50: 39.9 nM

## Cc1c(C#N)cccc1[C@@H](C)Nc1nnc(C)c2cnc(N3CC4(CN(CCO)C4)C3)cc12 [Example 1-61, (R)-3-(1-((7-(6-(2-hydroxyethyl)-2,6-diazaspiro[3.3]heptan-2-yl)-4-methylpyrido[3,4-d]pyridazin-1-yl)amino)ethyl)-2-methylbenzonitrile]
[1]
  Ki: 0.797 nM
pERK in MKN1 cells
  IC50: 1340 nM

## Cc1c(C#N)cccc1[C@@H](C)Nc1nnc(C)c2cnc(N3CC4(C3)CN(C(C)C)C4)cc12 [Example 1-62, (R)-3-(1-((7-(6-isopropyl-2,6-diazaspiro[3.3]heptan-2-yl)-4-methylpyrido[3,4-d]pyridazin-1-yl)amino)ethyl)-2-methylbenzonitrile]
[1]
  Ki: 0.545 nM
pERK in MKN1 cells
  IC50: 37.6 nM

## Cc1c(C#N)cccc1[C@@H](C)Nc1nnc(C)c2cnc(N3CC4(CC(N(C)C)C4)C3)cc12 [Example 1-63, (R)-3-(1-((7-(6-(dimethylamino)-2-azaspiro[3.3]heptan-2-yl)-4-methylpyrido[3,4-d]pyridazin-1-yl)amino)ethyl)-2-methylbenzonitrile]
[1]
  Ki: 0.664 nM
pERK in MKN1 cells
  IC50: 48.9 nM

## Cc1c([C@@H](C)Nc2nnc(C)c3cnc(N(C)[C@H]4CCNC4)cc23)cccc1C(F)(F)F [Example 1-64, N^7,4-dimethyl-N^1-((R)-1-(2-methyl-3-(trifluoromethyl)phenyl)ethyl)-N^7-((S)-pyrrolidin-3-yl)pyrido[3,4-d]pyridazine-1,7-diamine]
[1]
  Ki: 0.246 nM
pERK in MKN1 cells
  IC50: 66.3 nM

## Cc1nnc(N[C@H](C)c2cccc(C(F)(F)F)c2F)c2cc(N(C)[C@H]3CCNC3)ncc12 [Example 1-65, N^1-((R)-1-(2-fluoro-3-(trifluoromethyl)phenyl)ethyl)-N^7,4-dimethyl-N^7-((S)-pyrrolidin-3-yl)pyrido[3,4-d]pyridazine-1,7-diamine]
[1]
  Ki: 0.505 nM
pERK in MKN1 cells
  IC50: 49.7 nM

## Cc1c([C@@H](C)Nc2nnc(C)c3cnc(N4CC5(CC(N(C)C)C5)C4)cc23)cccc1C(F)(F)F [Example 1-66, (R)-7-(6-(dimethylamino)-2-azaspiro[3.3]heptan-2-yl)-4-methyl-N-(1-(2-methyl-3-(trifluoromethyl)phenyl)ethyl)pyrido[3,4-d]pyridazin-1-amine]
[1]
  Ki: 0.106 nM
pERK in MKN1 cells
  IC50: 32.4 nM

## Cc1c(C#N)cccc1[C@@H](C)Nc1nnc(C)c2cnc(N3CCN(C)C(C)(C)C3)cc12 [Example 1-69, (R)-2-methyl-3-(1-((4-methyl-7-(3,3,4-trimethylpiperazin-1-yl)pyrido[3,4-d]pyridazin-1-yl)amino)ethyl)benzonitrile]
[1]
  Ki: 0.849 nM
pERK in MKN1 cells
  IC50: 39 nM

## Cc1c(C#N)cccc1[C@@H](C)Nc1nnc(C)c2cnc(N3CCN(C(C)C)CC3)cc12 [Example 1-70, (R)-3-(1-((7-(4-isopropylpiperazin-1-yl)-4-methylpyrido[3,4-d]pyridazin-1-yl)amino)ethyl)-2-methylbenzonitrile]
[1]
  Ki: 0.927 nM
pERK in MKN1 cells
  IC50: 44.2 nM

## Cc1c(C#N)cccc1[C@@H](C)Nc1nnc(C)c2cnc(N(C)[C@H]3CCOC3)cc12 [Example 1-71, 2-methyl-3-((R)-1-((4-methyl-7-(methyl((S)-tetrahydrofuran-3-yl)amino)pyrido[3,4-d]pyridazin-1-yl)amino)ethyl)benzonitrile]
[1]
  Ki: 4.69 nM
pERK in MKN1 cells
  IC50: 47.3 nM

## Cc1nnc(N[C@H](C)c2cccc(C(F)(F)F)c2F)c2cc(N(C)[C@H]3CCOC3)ncc12 [Example 1-72, N^1-((R)-1-(2-fluoro-3-(trifluoromethyl)phenyl)ethyl)-N^7,4-dimethyl-N^7-((S)-tetrahydrofuran-3-yl)pyrido[3,4-d]pyridazine-1,7-diamine]
[1]
  Ki: 1.74 nM
pERK in MKN1 cells
  IC50: 118 nM

## Cc1nnc(N[C@H](C)c2cccc(C(F)(F)F)c2F)c2cc(N(C)[C@@H]3CCOC3)ncc12 [Example 1-73, N^1-((R)-1-(2-fluoro-3-(trifluoromethyl)phenyl)ethyl)-N^7,4-dimethyl-N^7-((R)-tetrahydrofuran-3-yl)pyrido[3,4-d]pyridazine-1,7-diamine]
[1]
  Ki: 1.16 nM
pERK in MKN1 cells
  IC50: 54.8 nM

## Cc1c(C#N)cccc1[C@@H](C)Nc1nnc(C)c2cnc(N(C)[C@@H]3CCOC3)cc12 [Example 1-74, 2-methyl-3-((R)-1-((4-methyl-7-(methyl((R)-tetrahydrofuran-3-yl)amino)pyrido[3,4-d]pyridazin-1-yl)amino)ethyl)benzonitrile]
[1]
  Ki: 2.34 nM
pERK in MKN1 cells
  IC50: 39.9 nM

## Cc1nnc(N[C@H](C)c2cccc(C(F)(F)F)c2F)c2cc(N(C)[C@@H]3CCN(C(C)C)C3)ncc12 [Example 1-76, N^1-((R)-1-(2-fluoro-3-(trifluoromethyl)phenyl)ethyl)-N^7-((R)-1-isopropylpyrrolidin-3-yl)-N^7,4-dimethylpyrido[3,4-d]pyridazine-1,7-diamine]
[1]
  Ki: 0.367 nM
pERK in MKN1 cells
  IC50: 119 nM

## Cc1nnc(N[C@H](C)c2cccc(C(F)(F)F)c2F)c2cc(N(C)[C@H]3CCN(C(C)C)C3)ncc12 [Example 1-77, N^1-((R)-1-(2-fluoro-3-(trifluoromethyl)phenyl)ethyl)-N^7-((S)-1-isopropylpyrrolidin-3-yl)-N^7,4-dimethylpyrido[3,4-d]pyridazine-1,7-diamine]
[1]
  Ki: 0.647 nM
pERK in MKN1 cells
  IC50: 121 nM

## Cc1c(C#N)cccc1[C@@H](C)Nc1nnc(C)c2cnc(N(C)[C@H]3CCCN(C)C3)cc12 [Example 1-81, 2-methyl-3-((R)-1-((4-methyl-7-(methyl((S)-1-methylpiperidin-3-yl)amino)pyrido[3,4-d]pyridazin-1-yl)amino)ethyl)benzonitrile]
[1]
  Ki: 0.865 nM
pERK in MKN1 cells
  IC50: 62.4 nM

## Cc1c(C#N)cccc1[C@@H](C)Nc1nnc(C)c2cnc(N(C)[C@@H]3CCCN(C)C3)cc12 [Example 1-82, 2-methyl-3-((R)-1-((4-methyl-7-(methyl((R)-1-methylpiperidin-3-yl)amino)pyrido[3,4-d]pyridazin-1-yl)amino)ethyl)benzonitrile]
[1]
  Ki: 1.16 nM
pERK in MKN1 cells
  IC50: 85.2 nM

## Cc1nnc(N[C@H](C)c2cccc(C(F)(F)F)c2F)c2cc(N(C)C3CCN(C)CC3)ncc12 [Example 1-83, (R)-N^1-(1-(2-fluoro-3-(trifluoromethyl)phenyl)ethyl)-N^7,4-dimethyl-N^7-(1-methylpiperidin-4-yl)pyrido[3,4-d]pyridazine-1,7-diamine]
[1]
  Ki: 0.788 nM
pERK in MKN1 cells
  IC50: 82.8 nM

## Cc1c(C#N)cccc1[C@@H](C)Nc1nnc(C)c2cnc(N3CCS(=N)(=O)CC3)cc12 [Example 1-84, (R)-3-(1-((7-(1-imino-1-oxido-thiomorpholino)-4-methylpyrido[3,4-d]pyridazin-1-yl)amino)ethyl)-2-methylbenzonitrile]
[1]
  Ki: 2.34 nM
pERK in MKN1 cells
  IC50: 2730 nM

## Cc1nnc(N[C@H](C)c2cccc(C(F)(F)F)c2F)c2cc(N(C)[C@H]3CCCN(C)C3)ncc12 [Example 1-85, N^1-((R)-1-(2-fluoro-3-(trifluoromethyl)phenyl)ethyl)-N^7,4-dimethyl-N^7-((S)-1-methylpiperidin-3-yl)pyrido[3,4-d]pyridazine-1,7-diamine]
[1]
  Ki: 0.662 nM
pERK in MKN1 cells
  IC50: 185 nM

## Cc1nnc(N[C@H](C)c2cccc(C(F)(F)F)c2F)c2cc(N3CC[C@@H](N(C)C)C3)ncc12 [Example 1-86, 7-((R)-3-(dimethylamino)pyrrolidin-1-yl)-N-((R)-1-(2-fluoro-3-(trifluoromethyl)phenyl)ethyl)-4-methylpyrido[3,4-d]pyridazin-1-amine]
[1]
  Ki: 0.372 nM
pERK in MKN1 cells
  IC50: 50.8 nM

## Cc1nnc(N[C@H](C)c2cccc(C(F)(F)F)c2F)c2cc(N3CC4(CNC4)C3)ncc12 [Example 1-87, (R)-N-(1-(2-fluoro-3-(trifluoromethyl)phenyl)ethyl)-4-methyl-7-(2,6-diazaspiro[3.3]heptan-2-yl)pyrido[3,4-d]pyridazin-1-amine]
[1]
  Ki: 0.524 nM
pERK in MKN1 cells
  IC50: 273 nM

## CCN1CC[C@@H](N(C)c2cc3c(N[C@H](C)c4cccc(C#N)c4C)nnc(C)c3cn2)C1 [Example 1-88, 3-((R)-1-((7-(((R)-1-ethylpyrrolidin-3-yl)(methyl)amino)-4-methylpyrido[3,4-d]pyridazin-1-yl)amino)ethyl)-2-methylbenzonitrile]
[1]
  Ki: 1.37 nM
pERK in MKN1 cells
  IC50: 35.5 nM
